Reference: PubChem BioAssay AID248 (DTP/NCI, 2004)
Values joined by “and” are separate entries in the source; they are usually repeats but may differ in a detail not shown here. Equal values may be shown once. Inconclusive results and toxic doses are left out. No stated cut-off is given here; in the data, active means T/C of 150% or more; inactive means T/C below 125%.

Test system: L1210 leukemia ip in BDF1 mice, survival T/C
Test: NCI In Vivo Anticancer Drug Screen. Data for tumor model L1210 Leukemia (intraperitoneal) in B6D2F1 (BDF1) mice
Conditions: endpoint: mean survival time, higher = longer survival
How it was run: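 Ratio derived from survival: compound-dosed mice over vehicle-dosed mice, all bearing a transplantable tumor.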

[1] = dose: 50.0 mg/kg/injection, schedule: Q01DX001 (ip), vehicle: saline
[2] = dose: 100.0 mg/kg/injection, schedule: Q01DX001 (ip), vehicle: saline
[3] = dose: 200.0 mg/kg/injection, schedule: Q01DX001 (ip), vehicle: saline
[4] = dose: 400.0 mg/kg/injection, schedule: Q01DX001 (ip), vehicle: saline
[5] = dose: 100.0 mg/kg/injection, schedule: Q01DX009 (ip), vehicle: Klucel (hydroxypropylcellulose) (HPC)
[6] = dose: 200.0 mg/kg/injection, schedule: Q01DX009 (ip), vehicle: Klucel (hydroxypropylcellulose) (HPC)
[7] = dose: 100.0 mg/kg/injection, schedule: Q01DX009 (ip), vehicle: saline with Tween-80
[8] = dose: 100.0 mg/kg/injection, schedule: Q04DX003 (ip), vehicle: saline with Tween-80
[9] = dose: 200.0 mg/kg/injection, schedule: Q01DX009 (ip), vehicle: saline with Tween-80
[10] = dose: 200.0 mg/kg/injection, schedule: Q04DX003 (ip), vehicle: saline with Tween-80
[11] = dose: 400.0 mg/kg/injection, schedule: Q01DX009 (ip), vehicle: saline with Tween-80
[12] = dose: 400.0 mg/kg/injection, schedule: Q04DX003 (ip), vehicle: saline with Tween-80

Measured: T/C

CS(=O)(=O)OCCN(CCOS(C)(=O)=O)c1cccc(F)c1
inactive: dose: 5.0 mg/kg/injection, schedule: Q01DX001 (ip), vehicle: saline 98 % of control and 113 % of control | dose: 9.0 mg/kg/injection, schedule: Q01DX001 (ip), vehicle: saline 98 % of control | dose: 10.0 mg/kg/injection, schedule: Q01DX001 (ip), vehicle: saline 100 % of control | dose: 13.0 mg/kg/injection, schedule: Q01DX001 (ip), vehicle: saline 96 % of control | dose: 30.0 mg/kg/injection, schedule: Q01DX001 (ip), vehicle: saline 97 % of control | dose: 40.0 mg/kg/injection, schedule: Q01DX001 (ip), vehicle: saline 100 % of control | [1] 103 % of control | dose: 80.0 mg/kg/injection, schedule: Q01DX001 (ip), vehicle: saline 98 % of control and 87 % of control | [2] 105 % of control | [3] 121 % of control

C(/C=C/c1ccccc1)=C\c1ccccc1
inactive: [1] 104 % of control | [2] 104 % of control | [3] 104 % of control | [4] 104 % of control

CCCN(CCC)C[Si](C)(C)C
inactive: dose: 12.5 mg/kg/injection, schedule: Q01DX001 (ip), vehicle: saline 121 % of control | dose: 25.0 mg/kg/injection, schedule: Q01DX001 (ip), vehicle: saline 105 % of control | [1] 111 % of control

CC(C)CC(NC(=O)C1(N)C2CC3CC(C2)CC1C3)C(=O)O (centres undefined)
inactive: dose: 22.5 mg/kg/injection, schedule: Q01DX009 (ip), vehicle: Klucel (hydroxypropylcellulose) (HPC) 100 % of control | dose: 45.0 mg/kg/injection, schedule: Q01DX009 (ip), vehicle: Klucel (hydroxypropylcellulose) (HPC) 103 % of control | dose: 90.0 mg/kg/injection, schedule: Q01DX009 (ip), vehicle: Klucel (hydroxypropylcellulose) (HPC) 97 % of control | [5] 108 % of control | [6] 107 % of control | dose: 400.0 mg/kg/injection, schedule: Q01DX009 (ip), vehicle: Klucel (hydroxypropylcellulose) (HPC) 100 % of control

COc1cc(OC)c2c(c1)-n1cccc1C2=O
inactive: dose: 100.0 mg/kg/injection, schedule: Q04DX002 (ip), vehicle: Klucel (hydroxypropylcellulose) (HPC) 101 % of control | dose: 200.0 mg/kg/injection, schedule: Q04DX002 (ip), vehicle: Klucel (hydroxypropylcellulose) (HPC) 104 % of control | dose: 400.0 mg/kg/injection, schedule: Q04DX002 (ip), vehicle: Klucel (hydroxypropylcellulose) (HPC) 93 % of control

C[Si](C)(C)O[Si](C)(C)c1ccccc1
inactive: dose: 50.0 mg/kg/injection, schedule: Q01DX009 (ip), vehicle: saline 102 % of control | dose: 100.0 mg/kg/injection, schedule: Q01DX009 (ip), vehicle: saline 88 % of control | dose: 100.0 mg/kg/injection, schedule: Q04DX003 (ip), vehicle: saline 103 % of control | dose: 200.0 mg/kg/injection, schedule: Q01DX009 (ip), vehicle: saline 99 % of control | dose: 200.0 mg/kg/injection, schedule: Q04DX003 (ip), vehicle: saline 109 % of control | dose: 400.0 mg/kg/injection, schedule: Q01DX009 (ip), vehicle: saline 96 % of control | dose: 400.0 mg/kg/injection, schedule: Q04DX003 (ip), vehicle: saline 95 % of control

CC1CC(C)OS(=O)O1 (centres undefined)
inactive: dose: 44.0 mg/kg/injection, schedule: Q01DX Z (ip), vehicle: saline 104 % of control | dose: 66.0 mg/kg/injection, schedule: Q01DX Z (ip), vehicle: saline 102 % of control | dose: 75.0 mg/kg/injection, schedule: Q01DX001 (ip), vehicle: acetone 103 % of control | dose: 100.0 mg/kg/injection, schedule: Q01DX Z (ip), vehicle: saline 91 % of control | dose: 150.0 mg/kg/injection, schedule: Q01DX001 (ip), vehicle: acetone 103 % of control | dose: 300.0 mg/kg/injection, schedule: Q01DX001 (ip), vehicle: acetone 101 % of control

CC(=O)CC(=O)Nc1cccc(Cl)c1C
inactive: [5] 89 % of control | [6] 89 % of control

COc1ccc(C(=O)CC(c2ccc3c(c2)OCO3)c2c(O)c3ccccc3oc2=O)cc1OC (centres undefined)
inactive: dose: 50.0 mg/kg/injection, schedule: Q01DX009 (ip), vehicle: saline with Tween-80 97 % of control | [7] 96 % of control | [8] 94 % of control | [9] 92 % of control | [10] 102 % of control | [11] 87 % of control | [12] 89 % of control

CN=C(NC)c1cccc(NC(=O)c2ccc(C(=O)Nc3cccc(C(=NC)NC)c3)c(N)c2)c1
inactive: dose: 0.5 mg/kg/injection, schedule: Q01DX015 (ip), vehicle: water 102 % of control | dose: 1.0 mg/kg/injection, schedule: Q01DX015 (ip), vehicle: water 102 % of control | dose: 2.0 mg/kg/injection, schedule: Q01DX015 (ip), vehicle: water 110 % of control | dose: 3.75 mg/kg/injection, schedule: Q01DX Z (ip), vehicle: water 91 % of control | dose: 4.0 mg/kg/injection, schedule: Q01DX015 (ip), vehicle: water 102 % of control | dose: 7.5 mg/kg/injection, schedule: Q01DX Z (ip), vehicle: water 87 % of control | dose: 15.0 mg/kg/injection, schedule: Q01DX Z (ip), vehicle: water 93 % of control

CCC(C(=O)c1cccs1)C(O)(C(F)(F)F)C(F)(F)F (centres undefined)
inactive: dose: 100.0 mg/kg/injection, schedule: Q01DX001 (ip), vehicle: Klucel (hydroxypropylcellulose) (HPC) 102 % of control | dose: 200.0 mg/kg/injection, schedule: Q01DX001 (ip), vehicle: Klucel (hydroxypropylcellulose) (HPC) 97 % of control | dose: 400.0 mg/kg/injection, schedule: Q01DX001 (ip), vehicle: Klucel (hydroxypropylcellulose) (HPC) 94 % of control

Cc1cc(C)c(S(=O)(=O)c2ccc(F)cc2)c(C)c1
inactive: [7] 98 % of control | [9] 98 % of control | [11] 101 % of control

CCCCCCCC(=O)Oc1ccc([N+](=O)[O-])cc1
inactive: dose: 75.0 mg/kg/injection, schedule: Q01DX001 (ip), vehicle: saline 100 % of control | dose: 150.0 mg/kg/injection, schedule: Q01DX001 (ip), vehicle: saline 109 % of control | dose: 300.0 mg/kg/injection, schedule: Q01DX001 (ip), vehicle: saline 95 % of control

CCOC(=O)NCC(CCCN1CCOCC1)(c1cccc2ccccc12)C(C)CC (centres undefined)
inactive: dose: 100.0 mg/kg/injection, schedule: Q04DX002 (ip), vehicle: saline 102 % of control | dose: 200.0 mg/kg/injection, schedule: Q04DX002 (ip), vehicle: saline 106 % of control | dose: 400.0 mg/kg/injection, schedule: Q04DX002 (ip), vehicle: saline 97 % of control

CCN(CC)C(=O)Sc1ccc(SC(=O)N(CC)CC)cc1
inactive: dose: 12.5 mg/kg/injection, schedule: Q04DX002 (ip), vehicle: saline with Tween-80 90 % of control | dose: 25.0 mg/kg/injection, schedule: Q04DX002 (ip), vehicle: saline with Tween-80 97 % of control | dose: 50.0 mg/kg/injection, schedule: Q04DX002 (ip), vehicle: saline with Tween-80 93 % of control | [8] 107 % of control | [10] 102 % of control | [12] 97 % of control

CN(C)S(=O)(=O)c1ccc(NC(=O)OC2CCCCCCC2)cc1
inactive: [2] 96 % of control | [3] 94 % of control | [4] 89 % of control

OCC(O)COc1ccnc2ccccc12 (centres undefined)
inactive: dose: 100.0 mg/kg/injection, schedule: Q01DX009 (ip), vehicle: acetone 105 % of control | dose: 200.0 mg/kg/injection, schedule: Q01DX009 (ip), vehicle: acetone 97 % of control | dose: 400.0 mg/kg/injection, schedule: Q01DX009 (ip), vehicle: acetone 97 % of control
